Laboratory results published in PMC7145527 (2019).

Columns and labels:
[1] = test system: wt Chili RNA aptamer (RNA, aptamer) GGCUAGCUGGAGGGGCGCCAGUUCGCUGGUGGUUGGGUGCGGUCGGCUAGCC; assay: fluorescence titration; details: K+ 125 mM, Mg2+ 5 mM, HEPES pH 7.5, incubated at 4 °C 16 h
[2] = test system: wt Chili RNA aptamer (RNA, aptamer) GGCUAGCUGGAGGGGCGCCAGUUCGCUGGUGGUUGGGUGCGGUCGGCUAGCC; assay: fluorescence activation
[3] = test system: wt Chili RNA aptamer (RNA, aptamer) GGCUAGCUGGAGGGGCGCCAGUUCGCUGGUGGUUGGGUGCGGUCGGCUAGCC; assay: imino 1H NMR; details: K+ 50 mM, Mg2+ 1 mM; 25 mM KPi pH 7.4; 20 µM RNA, 20 µM dye
[4] = test system: wt Chili RNA aptamer (RNA, aptamer) GGCUAGCUGGAGGGGCGCCAGUUCGCUGGUGGUUGGGUGCGGUCGGCUAGCC; assay: fluorescence activation kinetics; details: K+ 125 mM, Mg2+ 5 mM; 40 mM HEPES pH 7.5, 25 °C; 0.025 µM RNA
[5] = test system: Chili C16U (RNA, aptamer) GGCUAGCUGGAGGGGUGCCAGUUCGCUGGUGGUUGGGUGCGGUCGGCUAGCC; assay: fluorescence activation; details: K+ 125 mM, Mg2+ 5 mM; HEPES pH 7.5; inferred from absent fluorescence; 0.5 µM RNA and dye
[6] = test system: Chili G31A (RNA, aptamer) GGCUAGCUGGAGGGGCGCCAGUUCGCUGGUAGUUGGGUGCGGUCGGCUAGCC; assay: fluorescence activation; details: K+ 125 mM, Mg2+ 5 mM; HEPES pH 7.5; inferred from absent fluorescence; 0.5 µM RNA and dye
[7] = test system: Chili C16U/G31A (RNA, aptamer) GGCUAGCUGGAGGGGUGCCAGUUCGCUGGUAGUUGGGUGCGGUCGGCUAGCC; assay: fluorescence activation; details: K+ 125 mM, Mg2+ 5 mM; HEPES pH 7.5; inferred from absent fluorescence; 0.5 µM RNA and dye
[8] = test system: Chili U34C (RNA, aptamer) GGCUAGCUGGAGGGGCGCCAGUUCGCUGGUGGUCGGGUGCGGUCGGCUAGCC; assay: fluorescence activation; details: K+ 125 mM, Mg2+ 5 mM; HEPES pH 7.5; I540 203.1 versus wt 200.2
[9] = test system: Chili G35A (RNA, aptamer) GGCUAGCUGGAGGGGCGCCAGUUCGCUGGUGGUUAGGUGCGGUCGGCUAGCC; assay: fluorescence activation; details: K+ 125 mM, Mg2+ 5 mM, HEPES pH 7.5
[10] = test system: Chili G36A (RNA, aptamer) GGCUAGCUGGAGGGGCGCCAGUUCGCUGGUGGUUGAGUGCGGUCGGCUAGCC; assay: fluorescence activation; details: K+ 125 mM, Mg2+ 5 mM, HEPES pH 7.5
[11] = test system: Chili U38C (RNA, aptamer) GGCUAGCUGGAGGGGCGCCAGUUCGCUGGUGGUUGGGCGCGGUCGGCUAGCC; assay: fluorescence activation; details: K+ 125 mM, Mg2+ 5 mM; HEPES pH 7.5; I540 129.3 versus wt 200.2
[12] = test system: Chili C40U (RNA, aptamer) GGCUAGCUGGAGGGGCGCCAGUUCGCUGGUGGUUGGGUGUGGUCGGCUAGCC; assay: fluorescence activation; details: K+ 125 mM, Mg2+ 5 mM; HEPES pH 7.5; I540 156.1 versus wt 200.2
[13] = test system: Chili C44U (RNA, aptamer) GGCUAGCUGGAGGGGCGCCAGUUCGCUGGUGGUUGGGUGCGGUUGGCUAGCC; assay: fluorescence activation; details: K+ 125 mM, Mg2+ 5 mM; HEPES pH 7.5; I540 122.6 versus wt 200.2
[14] = test system: wt Chili RNA aptamer (RNA, aptamer) GGCUAGCUGGAGGGGCGCCAGUUCGCUGGUGGUUGGGUGCGGUCGGCUAGCC; assay: isothermal titration calorimetry; details: K+ 125 mM, Mg2+ 5 mM; HEPES pH 7.5, 25 °C
[15] = test system: wt Chili RNA aptamer (RNA, aptamer) GGCUAGCUGGAGGGGCGCCAGUUCGCUGGUGGUUGGGUGCGGUCGGCUAGCC; assay: fluorescence competition; details: K+ 125 mM, Mg2+ 5 mM; 40 mM HEPES pH 7.5; competes with DMHBAI; up to 5 µM (tenfold excess)
[16] = K+ 125 mM, Mg2+ 5 mM, 80 mM HEPES pH 7.5, 0.5 µM RNA, 0.5 µM dye
[17] = weaker fluorescence than parent Chili

COc1cc(/C=C2\N=C(C)N(c3ccc(C)cc3)C2=O)cc(OC)c1O
KD ([1]; Figure S6 legend instead prints 0.377±0.024 µM): 151 ± 21 nM

COc1cc(/C=C2\N=C(C)N([C@H]3CC[C@H](C)CC3)C2=O)cc(OC)c1O
binding [2, 16]: yes

COc1ccc(N2C(=O)/C(=C/c3ccc(O)c(OC)c3)N=C2C)cc1
binding [2, 16]: yes

CCN1C(=O)/C(=C/c2cc(OC)c(O)c(OC)c2)N=C1C
binding [2, 16]: yes

COc1cc(/C=C2N=C(/C=C/c3c[nH]c4ccccc34)N(c3ccc(C)cc3)C\2=O)cc(OC)c1O
binding [2, 16]: yes

COc1ccc(N2C(=O)/C(=C/c3cc(OC)c(O)c(OC)c3)N=C2C)cc1
KD ([1]; dye 0.1 µM): 65 ± 7 nM

COc1cc(/C=C2N=C(/C=C/c3c[nH]c4ccccc34)N(C)C\2=O)cc(OC)c1O
binding [2, 16]: yes

COc1cc(/C=C2N=C(/C=C/c3ccccc3)N(C)C\2=O)cc(OC)c1O
binding [3]: yes

COc1cc(/C=C2N=C(/C=C/c3c[nH]cn3)N(C)C\2=O)cc(OC)c1O
binding [2, 16]: yes

COc1cc(/C=C2N=C(/C=C/c3ccccc3)N(c3ccc([N+](C)(C)C)cc3)C\2=O)cc(OC)c1O
binding [2, 16]: yes

COc1cc(/C=C2\N=C(C)N(c3ccccc3)C2=O)cc(OC)c1O
binding [2, 16]: yes

Cc1ccc2c(c1)sc(-c1ccc(N(C)C)cc1)[n+]2C
binding [2]: yes

COc1cc(/C=C2\N=C(C=NO)N(c3ccc([N+](C)(C)C)cc3)C2=O)cc(OC)c1O
kon [4]: 65000 M⁻¹ s⁻¹

COc1cc(/C=C2\N=C(C)N(C)C2=O)cc(Br)c1O
binding [2, 16]: yes

COc1cc(/C=C2\N=C(C)N(C)C2=O)cc(OC)c1O
binding [5]: no
binding [6]: no
binding [7]: no
binding [8]: yes
binding ([9]; I540 138.2 versus wt 200.2): yes
binding ([10]; I540 192.9 versus wt 200.2): yes
binding [11]: yes
binding [12]: yes
binding [13]: yes
KD [14]: 371 ± 55 nM

COc1ccc(N2C(=O)/C(=C/c3cc(OC)cc(OC)c3)N=C2C)cc1
binding [15]: no

COc1cc(/C=C2\N=C(C)N(c3ccc([N+](C)(C)C)cc3)C2=O)cc(OC)c1O
binding [5]: no
binding [6]: no
binding [7]: no
binding [9, 17]: yes
binding [10, 17]: yes
kon [4]: 82000 M⁻¹ s⁻¹
KD [14]: 24.1 ± 5.6 nM

COc1cc(/C=C2N=C(/C=C/c3ccncc3)N(C)C\2=O)cc(OC)c1O
binding [3]: yes

CN1C(=Cc2cc[n+](C)c3ccccc23)Sc2ccccc21
binding [2]: yes
